This assay deals with T1, human NPT2b (Homo sapiens, UniProt O95436).
T1 construct: Full-Length cDNA Cloning and Generation of Cell Lines Over-Expressing Human, Mouse, and Rat NPT2b; host or cells: CHO-K1 / T-REx CHO, pcDNA5/TO, tetracycline-induced
T1 sequence (O95436 1-690): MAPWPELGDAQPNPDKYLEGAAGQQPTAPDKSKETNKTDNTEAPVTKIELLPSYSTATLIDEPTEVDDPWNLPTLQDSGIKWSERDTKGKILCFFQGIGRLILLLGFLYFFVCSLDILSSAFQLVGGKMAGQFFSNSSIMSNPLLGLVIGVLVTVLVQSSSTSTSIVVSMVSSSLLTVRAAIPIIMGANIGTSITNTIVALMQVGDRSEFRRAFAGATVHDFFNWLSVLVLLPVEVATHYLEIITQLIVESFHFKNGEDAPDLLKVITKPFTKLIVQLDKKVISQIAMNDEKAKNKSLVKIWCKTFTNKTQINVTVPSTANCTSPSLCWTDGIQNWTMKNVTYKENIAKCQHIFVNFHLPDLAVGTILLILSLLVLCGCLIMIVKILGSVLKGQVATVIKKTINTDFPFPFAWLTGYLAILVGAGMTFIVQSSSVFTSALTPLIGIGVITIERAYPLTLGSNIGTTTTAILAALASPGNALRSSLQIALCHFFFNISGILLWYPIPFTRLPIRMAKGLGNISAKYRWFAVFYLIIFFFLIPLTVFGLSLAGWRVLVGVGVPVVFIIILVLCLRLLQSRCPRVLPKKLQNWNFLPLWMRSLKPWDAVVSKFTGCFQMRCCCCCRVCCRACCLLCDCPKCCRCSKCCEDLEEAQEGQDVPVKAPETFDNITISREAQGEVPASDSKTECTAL
Nature of the assay: 33P-phosphate uptake in CHO cells expressing human NPT2b. Format: cell-based. Conditions: geometric mean; 2.5 µM phosphate, 60 min, room temperature. The method, then: T‐Rex™ Chinese Hamster Ovary cells (CHO; Thermo Fisher Scientific) stably expressing human, mouse, or rat NPT2b under a tetracycline‐inducible promoter were generated using standard cDNA transfection and clone selection procedures (see Supporting Information). Cells were plated in 96‐well CytoStar‐T® scintillating microplates and were incubated overnight in growth media plus 100 ng/ml of tetracycline to induce expression of NPT2b. The next day, cells were washed 3 times with 200 µl assay buffer (137 mM NaCl, 5.4 mM KCl, 2.8 mM CaCl2, 1.2 mM MgSO4, and 14 mM Tris‐HCl buffer, pH 7.5). LY3358966 serially diluted 1‐to‐3 in DMSO was added to cells with assay buffer. An equal volume of H3 ^33PO4 (PerkinElmer) in assay buffer supplemented with 5 µM potassium phosphate was then added to initiate radiolabeled phosphate (^33P‐phosphate) uptake. The final phosphate concentration was 2.5 µM and the final DMSO concentration was 1%. Following a 60‐min incubation at room temperature, an equal volume of assay buffer containing 400 µM phloretin was added to stop ^33P‐phosphate uptake. The plate was immediately read on a Wallac MicroBeta Trilux liquid scintillation counter. Percent inhibition at all concentrations tested was calculated, and IC50 values were then determined using a 4‐parameter logistic curve fitting equation.
The vendors for target cDNA are listed in supplemental Table 1. […]

Usually IC50 stands for the midpoint of a concentration-inhibition curve. For the compound `CC1(C)CN(C(=O)NCCCCO)CCN1Cc1cccc(C(=O)Nc2sc3c(c2C(=O)Nc2cc(F)c(CCc4ccc(C(=O)O)cc4)c(F)c2)CCCC3)c1` [LY3358966, 4‐[2‐[2,6‐difluoro‐4‐[[2‐[[3‐[[4‐(4‐hydroxybutylcarbamoyl)‐2,2‐dimethyl‐piperazin‐1‐yl]methyl]benzoyl]amino]‐4,5,6,7‐tetrahydrobenzothiophene‐3‐carbonyl]amino]phenyl]ethyl]benzoic acid], the IC50 was found to be 32.4 nM.

For the origin of these results see paper PMC8863579, “Effects of pharmacological inhibition of the sodium‐dependent phosphate cotransporter 2b (NPT2b) on intestinal phosphate absorption in mouse and rat models” (Pharmacology Research & Perspectives, 2022).
